Results on twelve molecules are retold here after US20260285866A1, “MODULATORS OF TRPML, THEIR COMPOSITIONS AND METHODS OF USE” (Caraway Therapeutics, Inc., priority 2024, published 2026).

Common to all, as to format: cell-based
One assay deals with T1, Human TRPML3 (Homo sapiens, UniProt Q8TDD5).
T1 construct: expressed in transfected cells
T1 sequence (Q8TDD5 1-553): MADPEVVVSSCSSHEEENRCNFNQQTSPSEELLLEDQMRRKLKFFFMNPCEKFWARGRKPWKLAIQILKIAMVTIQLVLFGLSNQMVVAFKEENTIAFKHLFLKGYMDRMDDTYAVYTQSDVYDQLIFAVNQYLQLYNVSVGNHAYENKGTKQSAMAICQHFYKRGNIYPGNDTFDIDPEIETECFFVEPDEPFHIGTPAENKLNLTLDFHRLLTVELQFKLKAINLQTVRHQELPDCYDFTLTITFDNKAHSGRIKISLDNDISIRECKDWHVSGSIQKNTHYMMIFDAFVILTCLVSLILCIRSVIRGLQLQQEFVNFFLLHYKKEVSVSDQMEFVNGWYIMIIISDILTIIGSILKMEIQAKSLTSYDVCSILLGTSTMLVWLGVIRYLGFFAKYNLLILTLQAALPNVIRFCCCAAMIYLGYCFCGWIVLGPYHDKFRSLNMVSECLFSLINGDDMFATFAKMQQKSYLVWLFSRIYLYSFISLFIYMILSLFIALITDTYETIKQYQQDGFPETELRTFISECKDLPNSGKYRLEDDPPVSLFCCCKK
The assay is described as follows: Fluorescent TRPML3 assay (as for TRPML1). The conditions noted are these: fluorescent calcium assay as for TRPML1, TRPML3 subtype. The method, boiled down: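 Tet-inducible HEK-293 Trex cells expressing human TRPML2 or TRPML3, induced overnight with 0.5 μg/mL doxycycline, loaded with 1 μM Fluo4-AM and suspended in Ringer's solution with 10 mM calcium. Compounds tested in triplicate from 20 μM to 6 nM final in half-log steps; fluorescence at 480/540 nm. EC50 by non-linear regression, binned A–D.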

A further assay deals with T2, Human TRPML2 (Homo sapiens, UniProt Q8IZK6).
T2 construct: expressed in transfected cells
T2 sequence (Q8IZK6 1-566): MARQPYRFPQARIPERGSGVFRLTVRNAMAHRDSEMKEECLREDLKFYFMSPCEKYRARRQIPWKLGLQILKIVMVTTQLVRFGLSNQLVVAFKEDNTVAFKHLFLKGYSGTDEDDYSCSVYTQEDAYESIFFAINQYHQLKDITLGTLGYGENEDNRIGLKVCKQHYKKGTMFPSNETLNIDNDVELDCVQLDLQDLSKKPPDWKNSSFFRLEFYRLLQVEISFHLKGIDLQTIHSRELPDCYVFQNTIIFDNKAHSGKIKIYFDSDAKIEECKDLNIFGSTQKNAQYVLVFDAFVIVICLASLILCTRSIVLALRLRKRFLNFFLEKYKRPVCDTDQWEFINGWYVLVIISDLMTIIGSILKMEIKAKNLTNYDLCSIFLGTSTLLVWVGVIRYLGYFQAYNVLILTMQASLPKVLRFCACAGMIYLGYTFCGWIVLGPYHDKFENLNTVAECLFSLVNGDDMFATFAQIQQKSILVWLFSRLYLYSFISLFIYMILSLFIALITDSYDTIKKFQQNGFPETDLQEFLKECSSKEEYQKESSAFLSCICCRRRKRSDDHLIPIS
Briefly: Fluorescent TRPML2 assay (as for TRPML1). The settings on record: fluorescent calcium assay as for TRPML1, TRPML2 subtype. The method, then: HEK-293 Trex cells were stably transfected with a construct consisting of the human coding sequence for TRPML1 cloned into the tet-inducible plasmid pCDNA5 T/O. Mutations were introduced into the TRPML1 sequence to facilitate expression on the cell surface (Silvia Vergarajauregui, Rosa Puertollano Traffic. 2006 March; 7(3): 337-353). Briefly, the cells are cultured in 150 mm round tissue culture dishes containing 20 mL of media. The day before the assay the cells are rinsed with DPBS-Ca-Mg and then treated briefly with Trypsin-EDTA. The Trypsin-EDTA is diluted with growth media, and cells are counted. 38×10^6 cells are re-plated into 150 mm round tissue culture dishes in media containing 0.5 μg/mL doxycycline to induce expression of hTRPML1.
The day of the experiment cells are lifted from the plates as above and collected by centrifugation. The cells are then suspended in dye loading buffer consisting of Ringer's solution supplemented with 0.1% Pluronic Acid and 1 micromolar Fluo4-AM dye. Cells are loaded for ~60 minutes in the dark with occasional mixing. The cells are collected by centrifugation, the loading media aspirated, and the cells resuspended in 25 mL Ringer's solution and incubated ~60 minutes in the dark. The cells are again collected by centrifugation, rinsed in Ringer's Solution and resuspended to 0.2×10^6 cells/mL in modified Ringer's solution containing 10 mM calcium.
Compounds are dissolved to a concentration of 10 millimolar with DMSO. Compound plates are created by dispensing compounds into 384 well black wall clear bottom plates (Greiner 781091). Positive and negative controls are included on each plate. Typically, different amounts of each compound are tested ranging from 100 nanoMoles (20 micromolar final concentration) decreasing in half-log steps to 31 picoMoles (6 nanomolar final concentration). Each concentration is typically tested in triplicate.
50 microliters of dye-loaded cells are dispensed into each well of the compound assay plate created above. The fluorescence in each well is then determined with an excitation wavelength of 480 nm and an emission wavelength of 540 nm using either a Molecular Devices SpectraMax multimode plate reader or a Hamamatsu FDSS/uCell plate imager.
The resulting fluorescence for each well is exported as an ascii file and loaded into our LIMS for analysis. The percent activity of each compound at each concentration is determined by comparison to the positive and negative control wells included in each plate.
Assays for TRPML2 and TRPML3 were performed as above for TRPML1, by substituting the appropriate TRPML2 or TRPML3 subtype for the TRPML1.
EC50 values were calculated using a non-linear regression of Prism. In the table, “A” indicates an EC50 of less than 100 nM, “B” indicates an EC50 range from 100 nM to 500 nM: “C” indicates an EC50 range from 500 nM to 2 μM; and “D” indicates an EC50 greater than 2 μM.

In the next assay the target is Human TRPML1 (Homo sapiens, UniProt Q9GZU1, L15A/L16A/L577A/L578A). The assay is described as follows: Fluorescent TRPML1 assay (Fluo4-AM, HEK-293 Trex cells expressing hTRPML1). The settings on record: fluorescent calcium assay, doxycycline-induced hTRPML1. In a few lines: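 Doxycycline-induced (0.5 μg/mL) HEK-293 Trex cells stably expressing surface-targeted mutant hTRPML1, loaded with 1 μM Fluo4-AM, then suspended in modified Ringer's with 10 mM calcium and added to compounds (20 μM to 6 nM final, half-log steps, triplicate). Fluorescence read at ex 480/em 540; percent activity versus plate controls, EC50 by non-linear regression.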
Sequence of Human TRPML1 (Q9GZU1 whole entry L15A/L16A/L577A/L578A): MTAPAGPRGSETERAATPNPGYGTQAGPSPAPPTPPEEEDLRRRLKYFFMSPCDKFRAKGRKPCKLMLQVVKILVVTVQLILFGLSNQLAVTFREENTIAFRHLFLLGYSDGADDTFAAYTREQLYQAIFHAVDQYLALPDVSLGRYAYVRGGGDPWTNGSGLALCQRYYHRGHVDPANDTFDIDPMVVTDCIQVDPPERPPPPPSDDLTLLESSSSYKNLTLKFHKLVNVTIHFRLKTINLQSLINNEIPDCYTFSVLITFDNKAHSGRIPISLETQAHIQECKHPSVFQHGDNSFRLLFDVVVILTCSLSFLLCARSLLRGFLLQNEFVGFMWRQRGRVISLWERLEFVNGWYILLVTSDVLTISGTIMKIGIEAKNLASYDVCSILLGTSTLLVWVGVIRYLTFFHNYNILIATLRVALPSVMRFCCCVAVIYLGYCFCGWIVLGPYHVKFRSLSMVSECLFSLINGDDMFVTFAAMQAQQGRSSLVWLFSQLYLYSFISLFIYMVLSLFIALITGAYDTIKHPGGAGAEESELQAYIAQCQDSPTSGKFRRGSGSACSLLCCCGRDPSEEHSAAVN

As for `C[C@@H]1CN(c2ncnc3c2c(-c2ccccc2)cn3-c2cc(C#N)ccn2)[C@@H](C)CN1C(=O)CC(O)(C(F)(F)F)C(F)(F)F` [Compound 161, 2-(4-((2S,5R)-2,5-dimethyl-4-(4,4,4-trifluoro-3-hydroxy-3-(trifluoromethyl)butanoyl)piperazin-1-yl)-5-phenyl-7H-pyrrolo[2,3-d]pyrimidin-7-yl)isonicotinonitrile], the EC50 at Human TRPML3 is < 100 nM; on Human TRPML2, 500 to 2000 nM; on Human TRPML1, 100 to 500 nM.

For the molecule `C[C@@H]1CN(c2ncnc3c2c(-n2cccn2)cn3-c2cc(C#N)ccn2)[C@@H](C)CN1C(=O)C(C)(C)O` [Compound 133, 2-(4-((2S,5R)-4-(2-hydroxy-2-methylpropanoyl)-2,5-dimethylpiperazin-1-yl)-5-(1H-pyrazol-1-yl)-7H-pyrrolo[2,3-d]pyrimidin-7-yl)isonicotinonitrile], the EC50 on Human TRPML3 is 500 to 2000 nM; on Human TRPML2, > 2000 nM; on Human TRPML1, 500 to 2000 nM.

As for `COC1(C(=O)N2C[C@H](C)N(c3ncnc4c3c(-c3ccccc3F)cn4-c3cc(C#N)ccn3)C[C@H]2C)COC1` [Compound 166, 2-(5-(2-fluorophenyl)-4-((2S,5R)-4-(3-methoxyoxetane-3-carbonyl)-2,5-dimethylpiperazin-1-yl)-7H-pyrrolo[2,3-d]pyrimidin-7-yl)isonicotinonitrile], the half-maximal effective concentration (EC50) at Human TRPML3 was < 100 nM; on Human TRPML2, 500 to 2000 nM; on Human TRPML1, < 100 nM.

On to `CCC(O)(CC)C(=O)N1C[C@H](C)N(c2ncnc3c2c(-c2ccccc2)cn3-c2cc(C#N)ccn2)C[C@H]1C` [Compound 108, 2-(4-((2S,5R)-4-(2-ethyl-2-hydroxybutanoyl)-2,5-dimethylpiperazin-1-yl)-5-phenyl-7H-pyrrolo[2,3-d]pyrimidin-7-yl)isonicotinonitrile], for which the half-maximal effective concentration (EC50) is 100 to 500 nM at Human TRPML3, 500 to 2000 nM at Human TRPML2 and < 100 nM on Human TRPML1.

Turning to `C[C@@H]1CN(c2ncnc3c2c(-c2ccccc2)cn3-c2cc(C#N)ccn2)[C@@H](C)CN1C(=O)CC(C)(C)O` [Compound 159, 2-(4-((2S,5R)-4-(3-hydroxy-3-methylbutanoyl)-2,5-dimethylpiperazin-1-yl)-5-phenyl-7H-pyrrolo[2,3-d]pyrimidin-7-yl)isonicotinonitrile], the concentration for a half-maximal effect (EC50) on Human TRPML3 is 100 to 500 nM; on Human TRPML2, 500 to 2000 nM; at Human TRPML1 it was < 100 nM.

For `C[C@@H]1CN(c2ncnc3c2c(-c2ccncc2)cn3-c2cccc(OC(F)(F)F)c2)[C@@H](C)CN1C(=O)C(C)(C)O` [Compound 148, 1-((2R,5S)-2,5-dimethyl-4-(5-(pyridin-4-yl)-7-(3-(trifluoromethoxy)phenyl)-7H-pyrrolo[2,3-d]pyrimidin-4-yl)piperazin-1-yl)-2-hydroxy-2-methylpropan-1-one], the concentration for a half-maximal effect (EC50) at Human TRPML3 is > 2000 nM; on Human TRPML2, > 2000 nM; on Human TRPML1, 500 to 2000 nM.

As for `C[C@@H]1CN(c2ncnc3c2c(-c2ccccc2F)cn3-c2cc(C#N)ccn2)[C@@H](C)CN1C(=O)CC(C)(C)O` [Compound 158, 2-(5-(2-fluorophenyl)-4-((2S,5R)-4-(3-hydroxy-3-methylbutanoyl)-2,5-dimethylpiperazin-1-yl)-7H-pyrrolo[2,3-d]pyrimidin-7-yl)isonicotinonitrile], the EC50 was < 100 nM at Human TRPML3, > 2000 nM on Human TRPML2 and 100 to 500 nM on Human TRPML1.

For `CCOC(C)(C)C(=O)N1C[C@H](C)N(c2ncnc3c2c(-c2ccccc2)cn3-c2cc(C#N)ccn2)C[C@H]1C` [Compound 170, 2-(4-((2S,5R)-4-(2-ethoxy-2-methylpropanoyl)-2,5-dimethylpiperazin-1-yl)-5-phenyl-7H-pyrrolo[2,3-d]pyrimidin-7-yl)isonicotinonitrile], the concentration for a half-maximal effect (EC50) was < 100 nM on Human TRPML3, 100 to 500 nM at Human TRPML2 and < 100 nM at Human TRPML1.

Turning to `C[C@@H]1CN(c2ncnc3c2c(-c2ccncc2F)cn3-c2cc(C#N)ccn2)[C@@H](C)CN1C(=O)C(C)(C)O` [Compound 146, 2-(5-(3-fluoropyridin-4-yl)-4-((2S,5R)-4-(2-hydroxy-2-methylpropanoyl)-2,5-dimethylpiperazin-1-yl)-7H-pyrrolo[2,3-d]pyrimidin-7-yl)isonicotinonitrile], the EC50 at Human TRPML3 is 500 to 2000 nM; on Human TRPML2, > 2000 nM; on Human TRPML1, 100 to 500 nM.

As to `C[C@@H]1CN(c2ncnc3c2c(-c2ccncc2)cn3-c2cc(C#N)ccn2)[C@@H](C)CN1C(=O)C1(O)CCCC1` [Compound 150, 2-(4-((2S,5R)-4-(1-hydroxycyclopentane-1-carbonyl)-2,5-dimethylpiperazin-1-yl)-5-(pyridin-4-yl)-7H-pyrrolo[2,3-d]pyrimidin-7-yl)isonicotinonitrile], the 50% effective concentration (EC50) on Human TRPML3 is 100 to 500 nM; on Human TRPML2, 500 to 2000 nM; on Human TRPML1, < 100 nM.

Turning to `CC[C@H]1CN(C(=O)C(C)(C)O)[C@H](C)CN1c1ncnc2c1c(-c1ccccc1)cn2-c1cc(C#N)ccn1` [Compound 129, 2-(4-((2S,5R)-2-ethyl-4-(2-hydroxy-2-methylpropanoyl)-5-methylpiperazin-1-yl)-5-phenyl-7H-pyrrolo[2,3-d]pyrimidin-7-yl)isonicotinonitrile], the figures for the 50% effective concentration (EC50) on Human TRPML3, on Human TRPML2 and at Human TRPML1 were 100 to 500 nM, > 2000 nM and < 100 nM, respectively.

In the case of `C[C@@H]1CN(c2ncnc3c2c(-c2ccccc2)cn3-c2cc(C#N)ccn2)[C@@H](C)CN1C(=O)C1(O)COC1` [Compound 120, 2-(4-((2S,5R)-4-(3-hydroxyoxetane-3-carbonyl)-2,5-dimethylpiperazin-1-yl)-5-phenyl-7H-pyrrolo[2,3-d]pyrimidin-7-yl)isonicotinonitrile], the figures for the EC50 at Human TRPML3, at Human TRPML2 and at Human TRPML1 were 500 to 2000 nM, > 2000 nM and 100 to 500 nM, respectively.
